Reference: patent publication US5612327A, “1α,24-(OH)2 -cholecalciferol emulsion composition and method for treating psoriasis” (priority 1993, dated 1997)

Assays:
[1] = Solubility and chemical stability of 1α,24-(OH)2 --V.D3; format: physicochemical; settings: non-polar solvent
[2] = test system: excised skin (full skin) of Wistar rat; assay: Skin permeability of active ingredient from cream composition; format: in vitro ADME; settings: 0.25 part by weight in bases of Examples 1, 4, 5 and Control Examples 14 to 21; Test Method 3
Text: For the skin, use was made of skin cut off from a dilapidated Wistar rat (full skin=including stratum corneum, epidermis, and dermis). For the reservoir solution, use was made of Hanks buffer (pH=7.4) plus 10% bovine fetal serum. […] (For the method of assay, see below.)

Structure (SMILES)	Solubility (in words) [1]	Skin permeability of hydrocortisone acetate (in words) [2]
C=C1C(=CC=C2CCCC3(C)C2CCC3C(C)CCC(O)C(C)C)CC(O)CC1O (stereo not drawn) [1α,24-(OH)2 --V.D3, 1α,24-dihydroxylcholecalciferol]	does not dissolve much at all in a non-polar solvent	–
CC(=O)OCC(=O)[C@@]1(O)CC[C@H]2[C@@H]3CCC4=CC(=O)CC[C@]4(C)[C@H]3[C@@H](O)C[C@@]21C [hydrocortisone acetate]	–	almost completely unrelated to the weight ratio of the stearyl alcohol and cetyl alcohol
